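Cells were grown in 96-well plates and exposed to each compound for 48 hours at five concentrations; endpoints were interpolated linearly between bracketing concentrations, or set to the highest concentration if not reached. GI50 marks 50% less growth. TGI: total growth inhibition.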
Tests used:
Assay in all cases: NCI anticancer screen, dose series, 48 h
MDA-MB-231 breast = tested on: MDA-MB-231 breast
SK-MEL-28 melanoma = tested on: SK-MEL-28 melanoma
SW-620 colon = tested on: SW-620 colon
NCI-H226 lung = tested on: NCI-H226 lung
RPMI-8226 leukemia = tested on: RPMI-8226 leukemia
HCT-15 colon = tested on: HCT-15 colon
K-562 leukemia = tested on: K-562 leukemia
HL-60(TB) leukemia = tested on: HL-60(TB) leukemia
HT29 colon = tested on: HT29 colon
MOLT-4 leukemia = tested on: MOLT-4 leukemia
TK-10 renal = tested on: TK-10 renal
IGROV1 ovarian = tested on: IGROV1 ovarian
CCRF-CEM leukemia = tested on: CCRF-CEM leukemia
EKVX NSCLC = tested on: EKVX NSCLC
NCI-H522 lung = tested on: NCI-H522 lung
SK-OV-3 ovarian = tested on: SK-OV-3 ovarian
LOX IMVI melanoma = tested on: LOX IMVI melanoma
UACC-257 melanoma = tested on: UACC-257 melanoma
HOP-62 NSCLC = tested on: HOP-62 NSCLC
786-0 renal = tested on: 786-0 renal
NCI/ADR-RES ovarian = tested on: NCI/ADR-RES ovarian
SN12C renal = tested on: SN12C renal
SR leukemia = tested on: SR leukemia
CAKI-1 renal = tested on: CAKI-1 renal
SF-295 CNS = tested on: SF-295 CNS
PC-3 prostate = tested on: PC-3 prostate
SNB-19 CNS = tested on: SNB-19 CNS
MDA-MB-435 = tested on: MDA-MB-435
RXF 393 renal = tested on: RXF 393 renal
A549 NSCLC = tested on: A549 NSCLC
OVCAR-3 ovarian = tested on: OVCAR-3 ovarian
ACHN renal = tested on: ACHN renal
OVCAR-4 ovarian = tested on: OVCAR-4 ovarian
SF-268 CNS = tested on: SF-268 CNS
KM12 colon = tested on: KM12 colon
SK-MEL-2 melanoma = tested on: SK-MEL-2 melanoma
HS 578T breast = tested on: HS 578T breast
DU-145 prostate = tested on: DU-145 prostate
U251 CNS = tested on: U251 CNS
A498 renal = tested on: A498 renal
HCT-116 colon = tested on: HCT-116 colon
HOP-92 NSCLC = tested on: HOP-92 NSCLC
T-47D breast = tested on: T-47D breast
NCI-H23 lung = tested on: NCI-H23 lung
BT-549 breast = tested on: BT-549 breast
SK-MEL-5 melanoma = tested on: SK-MEL-5 melanoma
UO-31 renal = tested on: UO-31 renal
SF-539 CNS = tested on: SF-539 CNS
OVCAR-5 ovarian = tested on: OVCAR-5 ovarian
NCI-H460 lung = tested on: NCI-H460 lung
MALME-3M melanoma = tested on: MALME-3M melanoma
COLO 205 colon = tested on: COLO 205 colon
SNB-75 CNS = tested on: SNB-75 CNS
OVCAR-8 ovarian = tested on: OVCAR-8 ovarian
UACC-62 melanoma = tested on: UACC-62 melanoma
HCC-2998 colon = tested on: HCC-2998 colon
MCF7 breast = tested on: MCF7 breast

N#CC(=C1SCS1)[N+](=O)[O-]
GI50 (MDA-MB-231 breast): 4.94 µM | TGI (MDA-MB-231 breast): 20.4 µM | GI50 (SK-MEL-28 melanoma): 3.59 µM | TGI (SK-MEL-28 melanoma): 15.1 µM | GI50 (SW-620 colon): 0.454 µM | TGI (SW-620 colon): 6.47 µM | GI50 (NCI-H226 lung): 16.7 µM | TGI (NCI-H226 lung): 62.8 µM | GI50 (RPMI-8226 leukemia): 0.678 µM | TGI (RPMI-8226 leukemia): 4.06 µM | GI50 (HCT-15 colon): 0.853 µM | TGI (HCT-15 colon): 9.56 µM | GI50 (K-562 leukemia): 0.371 µM | TGI (K-562 leukemia): > 100 µM | GI50 (HL-60(TB) leukemia): 0.618 µM | TGI (HL-60(TB) leukemia): 6.36 µM | GI50 (HT29 colon): 0.336 µM | TGI (HT29 colon): 11.2 µM | GI50 (MOLT-4 leukemia): 0.639 µM | TGI (MOLT-4 leukemia): 6.5 µM | GI50 (TK-10 renal): 3.68 µM | TGI (TK-10 renal): 13.4 µM | GI50 (IGROV1 ovarian): 3.55 µM | TGI (IGROV1 ovarian): 71.1 µM | GI50 (CCRF-CEM leukemia): 0.376 µM | TGI (CCRF-CEM leukemia): 5.18 µM | GI50 (EKVX NSCLC): 12.4 µM | TGI (EKVX NSCLC): 31.1 µM | GI50 (NCI-H522 lung): 0.687 µM | TGI (NCI-H522 lung): 2.08 µM | GI50 (SK-OV-3 ovarian): 5.35 µM | TGI (SK-OV-3 ovarian): 43.3 µM | GI50 (LOX IMVI melanoma): 0.567 µM | TGI (LOX IMVI melanoma): 14.7 µM | GI50 (UACC-257 melanoma): 1.09 µM | TGI (UACC-257 melanoma): 7.06 µM | GI50 (HOP-62 NSCLC): 4.9 µM | TGI (HOP-62 NSCLC): 21.1 µM | GI50 (786-0 renal): 3.12 µM | TGI (786-0 renal): 14 µM | GI50 (NCI/ADR-RES ovarian): 3.05 µM | TGI (NCI/ADR-RES ovarian): 20 µM | GI50 (SN12C renal): 4.35 µM | TGI (SN12C renal): 18.4 µM | GI50 (SR leukemia): 0.568 µM | TGI (SR leukemia): 4.31 µM | GI50 (CAKI-1 renal): 2.14 µM | TGI (CAKI-1 renal): 16.2 µM | GI50 (SF-295 CNS): 4.82 µM | TGI (SF-295 CNS): 44.4 µM | GI50 (PC-3 prostate): 5.11 µM | TGI (PC-3 prostate): 20.7 µM | GI50 (SNB-19 CNS): 9.36 µM | TGI (SNB-19 CNS): 83.5 µM | GI50 (MDA-MB-435): 1.48 µM | TGI (MDA-MB-435): 16.9 µM | GI50 (RXF 393 renal): 1.63 µM | TGI (RXF 393 renal): 3.83 µM | GI50 (A549 NSCLC): 4 µM | TGI (A549 NSCLC): 40.6 µM | GI50 (OVCAR-3 ovarian): 1.13 µM | TGI (OVCAR-3 ovarian): 3.92 µM | GI50 (ACHN renal): 2.4 µM | TGI (ACHN renal): 13.2 µM | GI50 (OVCAR-4 ovarian): 4.79 µM | TGI (OVCAR-4 ovarian): 19 µM | GI50 (SF-268 CNS): 3.64 µM | TGI (SF-268 CNS): 20.1 µM | GI50 (KM12 colon): 3.29 µM | TGI (KM12 colon): 14.2 µM | GI50 (SK-MEL-2 melanoma): 6.7 µM | TGI (SK-MEL-2 melanoma): 20.7 µM | GI50 (HS 578T breast): 3.67 µM | TGI (HS 578T breast): 41.2 µM | GI50 (DU-145 prostate): 2.56 µM | TGI (DU-145 prostate): 10.1 µM | GI50 (U251 CNS): 2.37 µM | TGI (U251 CNS): 10.8 µM | GI50 (A498 renal): 2.31 µM | TGI (A498 renal): 12.7 µM | GI50 (HCT-116 colon): 0.346 µM | TGI (HCT-116 colon): 10.3 µM | GI50 (HOP-92 NSCLC): 0.365 µM | TGI (HOP-92 NSCLC): 10.4 µM | GI50 (T-47D breast): 0.724 µM | TGI (T-47D breast): 20.9 µM | GI50 (NCI-H23 lung): 7.96 µM | TGI (NCI-H23 lung): 34.8 µM | GI50 (BT-549 breast): 9.3 µM | TGI (BT-549 breast): 23 µM | GI50 (SK-MEL-5 melanoma): 3.25 µM | TGI (SK-MEL-5 melanoma): 13.8 µM | GI50 (UO-31 renal): 6.04 µM | TGI (UO-31 renal): 24.3 µM | GI50 (SF-539 CNS): 2.23 µM | TGI (SF-539 CNS): 12.7 µM | GI50 (OVCAR-5 ovarian): 4.12 µM | TGI (OVCAR-5 ovarian): 19.9 µM | GI50 (NCI-H460 lung): 2.99 µM | TGI (NCI-H460 lung): 10.1 µM | GI50 (MALME-3M melanoma): 3.21 µM | TGI (MALME-3M melanoma): 18.1 µM | GI50 (COLO 205 colon): 1.41 µM | TGI (COLO 205 colon): 3.92 µM | GI50 (SNB-75 CNS): 2.44 µM | TGI (SNB-75 CNS): 8.76 µM | GI50 (OVCAR-8 ovarian): 3.16 µM | TGI (OVCAR-8 ovarian): 13.8 µM | GI50 (UACC-62 melanoma): 2.29 µM | TGI (UACC-62 melanoma): 13.6 µM | GI50 (HCC-2998 colon): 4.26 µM | TGI (HCC-2998 colon): 16.6 µM | GI50 (MCF7 breast): 1.31 µM | TGI (MCF7 breast): 17.8 µM

Reference: PubChem BioAssay (NCI)
